We go through two molecules from article PMC9072250 (Acta Pharmaceutica Sinica. B, 2021).

Structures can show the parent of a compound that is named as a salt.

The test system of test [1] is monocrotaline-induced PAH rat model. The experiment in a line: Monocrotaline-induced PAH rat model. The class given is in vivo, Wister rats. The conditions noted are these: PAH rats, 10.0 mg/kg (po) daily for 3 weeks, positive control.
The subject of test [2] is PDE6A. The conditions noted are these: PDE6A versus PDE5A1; cited from earlier work.

For the molecule `CCCc1nn(C)c2c(=O)[nH]c(-c3cc(S(=O)(=O)N4CCN(C)CC4)ccc3OCC)nc12` [sildenafil citrate], in test [1], the “mean pulmonary artery pressure (mPAP)” value is on record as “decreased significantly”, the “right ventricle hypertrophy index (RVHI%)” value was “decreased significantly” and the “wall thickness percentage (WT%)” value is “decreased significantly”.

As to `CCCc1nn(C)c2c(=O)[nH]c(-c3cc(S(=O)(=O)N4CCN(C)CC4)ccc3OCC)nc12` [sildenafil], the “IC50 potency against PDE6A relative to PDE5A1” value in test [2] was 5 fold.
